Reference: patent publication US20120238562A1, “TREATMENT OF CANCER BY TARGETING MOLECULES THAT INFLUENCE MST1/STK4 SIGNALING” (CEDARS-SINAI MEDICAL CENTER, priority 2011, published 2012)
“Also recorded” adds a separate entry of the source.

What was measured:
Type in all cases: cell-based, human
[1] = system: C4-2 cells; experiment: Cell proliferation by MTS assay, C4-2 cells; details: for C4-2 cell growth / proliferation vs control (MTS, A490 nm): 48 h post treatment, vs DMSO, Ku0063794 1 μM, rapamycin 1 μM (p<0.1), BEZ-235 0.5 μM (p<0.002)
Procedure: A, B) LNCaP (A) or C4-2 (B) cells were treated with control (DMSO), LY294002 (20 μM), Ku0063794 (1 μM), rapamycin (1 μM), LY294002+Ku0063794, or LY294002+Rapamycin. C) C4-2 cells were treated with DMSO or the dual PI3K and mTOR inhibitor, BEZ-235 (0.5 μM). Control or drug treatments were performed in T-medium supplemented with 5% FBS and 1% Pen/Strep. Cell proliferation was determined by MTS assay (A490 nm) at 48 h post treatment. D) Levels of endogenous total Mst1 by western blot in cytoplasmic (C) and nuclear (N) fractions from C4-2 cells that were transfected with scramble or Mst1 specific SiRNa. B-actin was used as a loading control. E) Effects of DMSO or CCI-779 on C4-2 cell proliferation with scramble or MSt1 knockdown conditions. Cell proliferation was determined by MTS (A490 nm) at 72 h post transfection. Data are representative of multiple experiments.
Cell proliferation was measured using CellTiter 96 AQueous with MTS reagent (Promega, Madison, Wis.). Briefly, cells in RPMI-medium plus 10% fetal bovine serum were added to 96-well plates at 4,000 cells per well in quadruplicate. After 24 h, LY290042, Ku0063794, Rapamycin, CCI-779 or BEZ-235 alone or combined were added, and cells were cultured for the indicated time. DMSO was used as a control. At 24 h post siRNA transfection, cells were treated with DMSO control or CCI-779 and incubated up to 72 h. MTS and phenazine methosulfate solution (20 μL/well) was added and the absorbance at 490 nm was recorded using a microplate reader (BMG Labtech; Cary, N.C.). For the clonogenic assay, 500 cells per well were seeded and cultured in 6-well plates for a week in the presence of Dox (0.5 μg/mL) in serum-fed conditions. The medium was changed every 3 days. Colonies were fixed with formaldehyde (4% v/v) and stained with crystal violet (0.5%). Representative views from triplicate experiments were photographed and quantified. […] After 14 days, colonies were photographed and quantified. […]

[2] = system: Mst1-T120 phosphorylation; experiment: Western blot of Mst1-T120 phosphorylation in cytoplasmic and nuclear fractions of C4-2 cells; details: serum-deprived, 3 h post treatment, vs DMSO control, LY294002 20 μM, Ku0063794 1 μM, CCI-779 1 μM
Procedure: (§1) A) Schematic representation of the GST-Mst1 peptide with wild type (wt) T120 or T120A mutations. B) In vitro kinase assay with bacterially expressed and purified GST-only, GST-Mst1-T120 wt, or GST-Mst1-T120A mutant peptide and the recombinant pre-activated Akt kinase. Western blots were probed with pMst1-T120 antibody. Ponceau S stained purified GST, GST-Mst1-T120, or GST-Mst1-T120A mutant peptide. C) LNCaP cells were treated with DMSO (vehicle) control, a specific PI3K inhibitor, LY294002 (20 μM), or mTOR inhibitor, Ku0063794 (1 μM) in serum-starved conditions. […]
(§2) A nuclear extraction kit according to the manufacturer's protocol (Affymetrix, Santa Clara, Calif.) was used to isolate cytoplasmic and nuclear fractions. […] Protein concentrations were determined by the Lowry method (Bio-Rad, Hercules, Calif.). […] Signals were detected using SuperSignal West Pico Chemiluminescence Substrate (Thermo Scientific, Roxford, Ill.).
(§3) The inventors generated GST-Mst1 peptide with T120-wt or T120A mutations (FIG. 2A). […] The inventors then assessed the effects of PI3K-Akt inhibition on Mst1-T120 phosphorylation in its respective location in the cell. […] The levels of phospho-Mst1-T120 were assessed by western blot in cytoplasmic and nuclear fractions. […]

[3] = system: Mst1; experiment: Western blot of Mst1 nuclear accumulation in C4-2 cells; details: Ku0063794 1 μM or CCI-779 1 μM, 3 h post treatment
Procedure: A) Schematic representation of the GST-Mst1 peptide with wild type (wt) T120 or T120A mutations. B) In vitro kinase assay with bacterially expressed and purified GST-only, GST-Mst1-T120 wt, or GST-Mst1-T120A mutant peptide and the recombinant pre-activated Akt kinase. Western blots were probed with pMst1-T120 antibody. Ponceau S stained purified GST, GST-Mst1-T120, or GST-Mst1-T120A mutant peptide. C) LNCaP cells were treated with DMSO (vehicle) control, a specific PI3K inhibitor, LY294002 (20 μM), or mTOR inhibitor, Ku0063794 (1 μM) in serum-starved conditions. D) C4-2 cells were treated with Temsirolimus (CCI-779), an mTORC1 inhibitor (1 μM) in addition to DMSO, LY294002 and Ku0063794 under the same experimental conditions as in “C”. E) C4-2 cells treated with DMSO or LY294002 and CCI-779. Control/DMSO or drug treatment in “C,” “D,” or “E” was performed under serum-deprived conditions. Western blots were probed with antibodies to corresponding proteins at 3 h post treatment. Lam-A/C:Lamin-A/C. […]
as §2, with “Ill.). […]” for “Ill.).”

[4] = system: Akt; experiment: Akt activation in C4-2 cells under mTOR inhibition; details: castration-resistant prostate cancer cells (C4-2), same conditions as Mst1-T120 hyper-phosphorylation
Procedure: A) Schematic representation of the GST-Mst1 peptide with wild type (wt) T120 or T120A mutations. B) In vitro kinase assay with bacterially expressed and purified GST-only, GST-Mst1-T120 wt, or GST-Mst1-T120A mutant peptide and the recombinant pre-activated Akt kinase. Western blots were probed with pMst1-T120 antibody. Ponceau S stained purified GST, GST-Mst1-T120, or GST-Mst1-T120A mutant peptide. C) LNCaP cells were treated with DMSO (vehicle) control, a specific PI3K inhibitor, LY294002 (20 μM), or mTOR inhibitor, Ku0063794 (1 μM) in serum-starved conditions. D) C4-2 cells were treated with Temsirolimus (CCI-779), an mTORC1 inhibitor (1 μM) in addition to DMSO, LY294002 and Ku0063794 under the same experimental conditions as in “C”. E) C4-2 cells treated with DMSO or LY294002 and CCI-779. Control/DMSO or drug treatment in “C,” “D,” or “E” was performed under serum-deprived conditions. Western blots were probed with antibodies to corresponding proteins at 3 h post treatment. Lam-A/C:Lamin-A/C. Data are representative of multiple experiments.
Consistent with this finding, PI3K and mTORC1 inhibition combined synergistically to prevent the proliferation of C4-2 cells compared to a single agent (FIG. 3B). […]

[5] = system: Mst1-T120 phosphorylation; experiment: Western blot of Mst1-T120 phosphorylation in cytoplasmic and nuclear fractions of LNCaP cells; details: serum-starved, 3 h post treatment, vs DMSO control, LY294002 20 μM, Ku0063794 1 μM
Procedure: as §1, §2, §3

[6] = system: Mst1-T183 phosphorylation; experiment: Mst1-T183 phosphorylation in treated prostate cancer cells; details: prostate cancer cells treated with inhibitor
Procedure: However, the levels of […] phosphorylation were unchanged when cells were treated with a potent mTOR inhibitor, Ku0063794, (FIG. 3). […] Based on these observations, the inventors therefore conclude that Mst1-phosphorylation at T120 or at […] are unrelated events or is modulated by different mechanisms, at least in prostate cancer cells.

| Structure (SMILES) | C4-2 cell growth / proliferation vs control (MTS, A490 nm) [1] | Mst1-T120 phosphorylation [2] | Mst1 nuclear accumulation [3] | C4-2 cell proliferation under Mst1 knockdown vs scramble siRNA (MTS, A490 nm) ([1]; Mst1 siRNA vs scramble siRNA, CCI-779 vs DMSO, 72 h post transfection) | Akt activation [4] | Mst1-T120 phosphorylation in cell nuclei [5] | Mst1-T183 phosphorylation [6] |
| --- | --- | --- | --- | --- | --- | --- | --- |
| Cn1c(=O)n(-c2ccc(C(C)(C)C#N)cc2)c2c3cc(-c4cnc5ccccc5c4)ccc3ncc21 [BEZ-235] | significantly inhibited | – | – | – | – | – | – |
| CO[C@H]1C[C@@H]2CC[C@@H](C)[C@@](O)(O2)C(=O)C(=O)N2CCCC[C@H]2C(=O)O[C@H]([C@H](C)C[C@@H]2CC[C@@H](OC(=O)C(C)(CO)CO)[C@H](OC)C2)CC(=O)[C@H](C)/C=C(\C)[C@@H](O)[C@@H](OC)C(=O)[C@H](C)C[C@H](C)/C=C/C=C/C=C/1C [CCI-779, temsirolimus] | – | hyper-phosphorylation; also recorded: hyperphosphorylation | increase | sensitized | did not observe Akt activation | – | – |
| COc1ccc(-c2ccc3c(N4CCOCC4)nc(N4C[C@@H](C)O[C@@H](C)C4)nc3n2)cc1CO [Ku0063794] | failed to significantly inhibit | hyper-phosphorylation; also recorded: hyperphosphorylation | increase | – | did not observe Akt activation | unable to prevent | unchanged |
